Results published in the NIST ThermoML archive (doi:10.1021/je060271a).
Values joined by “and” are separate entries in the source; they are usually repeats but may differ in a detail not shown here. Equal values may be shown once.

Settings: 343.15 K, Liquid, Vibrating tube method

CCCCCCC(=O)OCC(COC(=O)CCCCCC)(COC(=O)CCCCCC)COC(=O)CCCCCC [pentaerythritol tetraheptanoate]
Settings	mass density
143.4 kPa	940.7 kg/m3
144.1 kPa	940.6 kg/m3
144.3 kPa	940.8 kg/m3
144.8 kPa	940.7 kg/m3 and 940.6 kg/m3
145 kPa	940.6 kg/m3 and 940.7 kg/m3
145.7 kPa	940.7 kg/m3
145.9 kPa	940.6 kg/m3
146.2 kPa	940.6 kg/m3
146.4 kPa	940.7 kg/m3
146.9 kPa	940.6 kg/m3
147.3 kPa	940.6 kg/m3
147.6 kPa	940.7 kg/m3
148.1 kPa	940.8 kg/m3
148.5 kPa	940.7 kg/m3
148.8 kPa	940.6 kg/m3
149 kPa	940.7 kg/m3
149.2 kPa	940.7 kg/m3
149.7 kPa	940.6 kg/m3
149.9 kPa	940.6 kg/m3
150 kPa	940.7 kg/m3
150.2 kPa	940.7 kg/m3
150.4 kPa	940.8 kg/m3
151.1 kPa	940.6 kg/m3
151.3 kPa	940.7 kg/m3
151.8 kPa	940.7 kg/m3 and 940.6 kg/m3
151.9 kPa	940.6 kg/m3
152.5 kPa	940.7 kg/m3
153 kPa	940.8 kg/m3
153.2 kPa	940.8 kg/m3
153.7 kPa	940.8 kg/m3
153.9 kPa	940.7 kg/m3
154.2 kPa	940.7 kg/m3
154.9 kPa	940.7 kg/m3
155.1 kPa	940.7 kg/m3
155.6 kPa	940.7 kg/m3
155.8 kPa	940.7 kg/m3
155.9 kPa	940.8 kg/m3
156.3 kPa	940.7 kg/m3
156.8 kPa	940.7 kg/m3
157 kPa	940.7 kg/m3
157.5 kPa	940.7 kg/m3
157.9 kPa	940.7 kg/m3
158.2 kPa	940.7 kg/m3
159.1 kPa	940.7 kg/m3
159.2 kPa	940.8 kg/m3
159.6 kPa	940.7 kg/m3
159.9 kPa	940.7 kg/m3
160.6 kPa	940.7 kg/m3
161.3 kPa	940.7 kg/m3
161.5 kPa	940.6 kg/m3
162.2 kPa	940.6 kg/m3
162.6 kPa	940.6 kg/m3
163.3 kPa	940.8 kg/m3
163.4 kPa	940.7 kg/m3
163.9 kPa	940.7 kg/m3
164.5 kPa	940.7 kg/m3
164.8 kPa	940.7 kg/m3
165.2 kPa	940.7 kg/m3
165.7 kPa	940.7 kg/m3
166.2 kPa	940.8 kg/m3
166.7 kPa	940.6 kg/m3
167.3 kPa	940.6 kg/m3
167.9 kPa	940.6 kg/m3
168.3 kPa	940.8 kg/m3
168.6 kPa	940.7 kg/m3
169.2 kPa	940.7 kg/m3
169.9 kPa	940.6 kg/m3
170.4 kPa	940.8 kg/m3
170.9 kPa	940.6 kg/m3
171.2 kPa	940.7 kg/m3
171.8 kPa	940.6 kg/m3
172.3 kPa	940.6 kg/m3
172.8 kPa	940.7 kg/m3
173 kPa	940.7 kg/m3
173.2 kPa	940.7 kg/m3
173.7 kPa	940.7 kg/m3
174.4 kPa	940.6 kg/m3
174.9 kPa	940.7 kg/m3
175.2 kPa	940.6 kg/m3
175.9 kPa	940.7 kg/m3
176.5 kPa	940.8 kg/m3
177.1 kPa	940.7 kg/m3
178 kPa	940.7 kg/m3
178.4 kPa	940.6 kg/m3
178.9 kPa	940.7 kg/m3
179.6 kPa	940.7 kg/m3
180.8 kPa	940.7 kg/m3
181.5 kPa	940.6 kg/m3
182.2 kPa	940.7 kg/m3
182.7 kPa	940.8 kg/m3
183.2 kPa	940.7 kg/m3
184.1 kPa	940.6 kg/m3
184.8 kPa	940.8 kg/m3
185.3 kPa	940.6 kg/m3
185.8 kPa	940.8 kg/m3
186.7 kPa	940.7 kg/m3
187.1 kPa	940.6 kg/m3
188.1 kPa	940.7 kg/m3
188.8 kPa	940.6 kg/m3
189.3 kPa	940.7 kg/m3
190 kPa	940.8 kg/m3
191.1 kPa	940.6 kg/m3
191.7 kPa	940.6 kg/m3
192.3 kPa	940.7 kg/m3
193.1 kPa	940.6 kg/m3
193.6 kPa	940.6 kg/m3
194.3 kPa	940.7 kg/m3
195.4 kPa	940.8 kg/m3
196.1 kPa	940.8 kg/m3
197.1 kPa	940.7 kg/m3
197.7 kPa	940.8 kg/m3
198.3 kPa	940.8 kg/m3
199.4 kPa	940.6 kg/m3
200.6 kPa	940.7 kg/m3
201.5 kPa	940.8 kg/m3
202.5 kPa	940.8 kg/m3
203.4 kPa	940.7 kg/m3
204.1 kPa	940.7 kg/m3
205.3 kPa	940.7 kg/m3
206 kPa	940.7 kg/m3
206.9 kPa	940.9 kg/m3
207.7 kPa	940.8 kg/m3
208.6 kPa	940.7 kg/m3
210 kPa	940.7 kg/m3
211 kPa	940.6 kg/m3
211.7 kPa	940.7 kg/m3
212.8 kPa	940.9 kg/m3
213.6 kPa	940.7 kg/m3
214.8 kPa	940.7 kg/m3
215.9 kPa	940.7 kg/m3
217.1 kPa	940.8 kg/m3
218 kPa	940.8 kg/m3
219 kPa	940.7 kg/m3
220.2 kPa	940.8 kg/m3
222.7 kPa	940.7 kg/m3
224.1 kPa	940.8 kg/m3
225.1 kPa	940.7 kg/m3
226.1 kPa	940.7 kg/m3
227 kPa	940.8 kg/m3
228.6 kPa	940.8 kg/m3
229.8 kPa	940.8 kg/m3
231 kPa	940.7 kg/m3
232.2 kPa	940.7 kg/m3
233.4 kPa	940.6 kg/m3
234.5 kPa	940.7 kg/m3
236.2 kPa	940.7 kg/m3
237.9 kPa	940.8 kg/m3
239.3 kPa	940.7 kg/m3
241.1 kPa	940.7 kg/m3
242 kPa	940.7 kg/m3
243.9 kPa	940.6 kg/m3
244.9 kPa	940.7 kg/m3
246.3 kPa	940.8 kg/m3
248 kPa	940.6 kg/m3
250 kPa	940.7 kg/m3
251 kPa	940.7 kg/m3
252.9 kPa	940.8 kg/m3
254.6 kPa	940.7 kg/m3
255.8 kPa	940.8 kg/m3
257.9 kPa	940.7 kg/m3
259.5 kPa	940.8 kg/m3
260.5 kPa	940.8 kg/m3
262.3 kPa	940.8 kg/m3
263.7 kPa	940.7 kg/m3
265.9 kPa	940.8 kg/m3
268 kPa	940.8 kg/m3
269.6 kPa	940.6 kg/m3
271.8 kPa	940.8 kg/m3
273.9 kPa	940.8 kg/m3
276.2 kPa	940.7 kg/m3
277.7 kPa	940.7 kg/m3
279.5 kPa	940.8 kg/m3
281.6 kPa	940.7 kg/m3
284.2 kPa	940.8 kg/m3
287.1 kPa	940.8 kg/m3
288.7 kPa	940.8 kg/m3
291.3 kPa	940.8 kg/m3
293.5 kPa	940.9 kg/m3
295.8 kPa	940.7 kg/m3
297.9 kPa	940.8 kg/m3
302.9 kPa	940.9 kg/m3
305.2 kPa	940.8 kg/m3
308.3 kPa	940.8 kg/m3
310.8 kPa	940.8 kg/m3
314.1 kPa	940.9 kg/m3
316.5 kPa	940.9 kg/m3
319.1 kPa	940.8 kg/m3
321.4 kPa	940.8 kg/m3
324.7 kPa	940.8 kg/m3
327.3 kPa	940.7 kg/m3
330.2 kPa	940.7 kg/m3
333.5 kPa	940.9 kg/m3
336 kPa	940.7 kg/m3
340 kPa	940.7 kg/m3
343.3 kPa	940.9 kg/m3
346.2 kPa	940.8 kg/m3
349.4 kPa	940.8 kg/m3
353.2 kPa	941 kg/m3
356.5 kPa	940.7 kg/m3
359.8 kPa	940.9 kg/m3
364.3 kPa	940.9 kg/m3
367.4 kPa	940.8 kg/m3
371.8 kPa	940.8 kg/m3
375.3 kPa	940.8 kg/m3
378.9 kPa	940.8 kg/m3
382.9 kPa	941 kg/m3
387.8 kPa	940.9 kg/m3
391.6 kPa	940.9 kg/m3
395.9 kPa	940.9 kg/m3
400.5 kPa	940.9 kg/m3
405 kPa	940.9 kg/m3
410.2 kPa	941 kg/m3
414.7 kPa	941 kg/m3
419.2 kPa	940.9 kg/m3
423.8 kPa	940.9 kg/m3
429.5 kPa	940.8 kg/m3
434.5 kPa	940.9 kg/m3
440.6 kPa	940.9 kg/m3
445.7 kPa	940.9 kg/m3
451.2 kPa	941 kg/m3
457.5 kPa	941 kg/m3
463.2 kPa	940.9 kg/m3
468.9 kPa	940.8 kg/m3
